According to ChEMBL document CHEMBL2163343, “Sesquiterpene lactones from Tithonia diversifolia act as peroxisome proliferator-activated receptor agonists” (Bioorg Med Chem Lett, 2012):

What was measured:
[1] = molecular target: T1, Peroxisome proliferator-activated receptor alpha (Homo sapiens) (UniProt Q07869); experiment: Transactivation of PPARalpha expressed in human HepG2 cells assessed as Sult2a1 expression at 10 uM by luciferase reporter gene assay relative to vehicle-treated control; assay type: cell-based
T1 sequence (whole entry): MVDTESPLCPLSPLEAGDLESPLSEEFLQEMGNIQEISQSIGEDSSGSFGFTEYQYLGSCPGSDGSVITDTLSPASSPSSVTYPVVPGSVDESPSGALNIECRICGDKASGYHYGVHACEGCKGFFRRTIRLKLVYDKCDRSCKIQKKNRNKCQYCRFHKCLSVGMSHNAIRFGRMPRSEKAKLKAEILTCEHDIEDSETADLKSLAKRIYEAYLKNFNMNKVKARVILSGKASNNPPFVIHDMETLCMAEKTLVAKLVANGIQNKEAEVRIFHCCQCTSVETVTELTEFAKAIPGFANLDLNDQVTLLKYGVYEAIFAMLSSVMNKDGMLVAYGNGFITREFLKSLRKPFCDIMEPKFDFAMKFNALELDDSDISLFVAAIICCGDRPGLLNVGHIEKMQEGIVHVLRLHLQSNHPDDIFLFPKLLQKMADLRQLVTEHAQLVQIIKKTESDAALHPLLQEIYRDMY

[2] = molecular target: T2, Peroxisome proliferator-activated receptor gamma (Homo sapiens, UniProt P37231); experiment: Inhibition of fluormone binding to human PPARgamma LBD after 2 hrs by competitive fluorescence polarization assay
T2 sequence (P37231 whole entry): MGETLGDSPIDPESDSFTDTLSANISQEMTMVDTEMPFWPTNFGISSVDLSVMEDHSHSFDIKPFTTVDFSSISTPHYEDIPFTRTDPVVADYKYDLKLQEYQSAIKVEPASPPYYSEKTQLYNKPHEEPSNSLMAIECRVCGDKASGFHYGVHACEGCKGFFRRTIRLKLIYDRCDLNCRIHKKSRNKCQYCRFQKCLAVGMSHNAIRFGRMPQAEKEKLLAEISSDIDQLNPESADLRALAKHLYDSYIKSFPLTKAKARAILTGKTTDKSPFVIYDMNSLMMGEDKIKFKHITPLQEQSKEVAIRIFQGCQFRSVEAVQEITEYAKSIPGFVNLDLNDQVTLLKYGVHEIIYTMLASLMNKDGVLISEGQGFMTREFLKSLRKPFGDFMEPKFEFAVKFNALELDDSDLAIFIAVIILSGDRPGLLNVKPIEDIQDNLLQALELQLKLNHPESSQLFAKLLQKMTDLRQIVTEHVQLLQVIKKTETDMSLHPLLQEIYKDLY

[3] = molecular target: T3, Peroxisome proliferator-activated receptor gamma (Homo sapiens) (UniProt P37231); experiment: Agonist activity at human PPARgamma expressed in human HEK293 cells assessed as ABCA1 promoter transactivation at 1 uM by luciferase reporter gene assay relative to vehicle-treated control; assay type: functional, cell-based
T3 sequence (whole entry): T2 sequence (P37231 whole entry)

[4] = molecular target: T3, Peroxisome proliferator-activated receptor gamma (Homo sapiens); experiment: Agonist activity at human PPARgamma expressed in human HEK293 cells assessed as SHP promoter transactivation by luciferase reporter gene assay relative to vehicle-treated control; assay type: functional, cell-based
[5] = molecular target: T3, Peroxisome proliferator-activated receptor gamma (Homo sapiens); experiment: Agonist activity at human PPARgamma expressed in human HEK293 cells assessed as ABCA1 promoter transactivation by luciferase reporter gene assay relative to vehicle-treated control; assay type: functional, cell-based
[6] = molecular target: T3, Peroxisome proliferator-activated receptor gamma (Homo sapiens); experiment: Agonist activity at human PPARgamma expressed in human HEK293 cells assessed as SHP promoter transactivation at 10 uM by luciferase reporter gene assay relative to vehicle-treated control; assay type: functional, cell-based
[7] = molecular target: T3, Peroxisome proliferator-activated receptor gamma (Homo sapiens); experiment: Agonist activity at human PPARgamma expressed in human HEK293 cells at 10 uM by luciferase reporter gene assay relative to vehicle-treated control; assay type: functional, cell-based
[8] = molecular target: T3, Peroxisome proliferator-activated receptor gamma (Homo sapiens); experiment: Agonist activity at human PPARgamma expressed in human HEK293 cells assessed as ABCA1 promoter transactivation at 10 uM by luciferase reporter gene assay relative to vehicle-treated control; assay type: functional, cell-based
[9] = molecular target: T1, Peroxisome proliferator-activated receptor alpha (Homo sapiens); experiment: Transactivation of PPARalpha expressed in human HepG2 cells assessed as Sult2a1 expression at 100 nM by luciferase reporter gene assay relative to vehicle-treated control; assay type: cell-based
[10] = molecular target: T3, Peroxisome proliferator-activated receptor gamma (Homo sapiens); experiment: Agonist activity at human PPARgamma expressed in human HEK293 cells assessed as SHP promoter transactivation at 1 uM by luciferase reporter gene assay relative to vehicle-treated control; assay type: functional, cell-based
[11] = molecular target: T3, Peroxisome proliferator-activated receptor gamma (Homo sapiens); settings: HEK293
Description: Agonist activity at human PPARgamma expressed in human HEK293 cells assessed as ABCA1 promoter transactivation at 100 nM by luciferase reporter gene assay relative to vehicle-treated control

Row | RLU [1] | IC50 [2] | RLU [3] | Activity [4] | Activity [5] | RLU [6] | RLU [7] | RLU [8] | RLU [9] | RLU [10] | RLU [11] | Compound
1 | 2.44 |  |  |  |  |  |  |  |  |  |  | CCOC(=O)C(C)(C)Oc1ccc(Cl)cc1
2 | 2.47 | 55 µM | 2.1 | Dose-dependent effect | Dose-dependent effect | 3.5 | 1.5 | 2.9 | 1.4 | 2.8 |  | C=C1C(=O)O[C@@H]2C[C@H](C)[C@@]3(O)C[C@H](O)[C@@](C)(C[C@@H](OC(=O)C(C)C)[C@@H]12)O3 [TAGITININ A]
3 | 2.33 | 27 µM | 2.1 | Dose-dependent effect | Dose-dependent effect | 3.4 | 2 | 3.1 | 1.4 |  | 1.6 | C=C1C(=O)O[C@@H]2C[C@H](C)[C@@]3(O)CC[C@@](C)(C[C@@H](OC(=O)C(C)C)[C@@H]12)O3 [TIROTUNDIN]
